Measured values as given in publication PMC10049495, “Antitumor Activity of PEGylated and TEGylated Phenothiazine Derivatives: Structure–Activity Relationship” (International Journal of Molecular Sciences, 2023).
Where two headings read alike, the source gives them in different places.

Experiments:
[1] = system: HeLa; details: cited from earlier work
[2] = system: MeWo; details: cited from earlier work
[3] = system: NHDF; set-up: method as in earlier work; details: cited from earlier work
[4] = system: CT-26; details: cited from earlier work
[5] = system: HepG2; details: cited from earlier work
[6] = system: Colo205; details: cited from earlier work
[7] = system: MCF-7; details: reference cell empty, probably merged; cited from earlier work
[8] = DPPH radical scavenging activity; details: DPPH, 0.0019-1 mM
Description: In this light, the antioxidant activity of the studied phenothiazine derivatives was investigated using DPPH assay, measuring the dependence of the free radical inhibition on the concentration as highlighted by a decreasing of the absorbance of DPPH when the concentration of the compound is increasing. The results, expressed in percentage of inhibition, are represented in Figure 4.
Ex Vivo Radical Scavenging Activity: In order to evaluate antioxidant activity of the studied compounds, a bleaching method of the 1,1-diphenyl-2-picryl hydrazyl (DPPH) radical was used. Briefly, a stock solution of 2 mM of each compound in ethanol was prepared and then diluted to obtain 10 different concentrations from 1 mM to 0.0019 mM using a 96-well plate. The diluted solutions with different concentrations were mixed with an equal volume of ethanolic DPPH solution (0.05 mg/mL), and the mixtures were incubated in the dark at room temperature […] for 1 h. After incubation, the absorbance was read at 517 nm. Inhibition percentage was calculated using Equation (2), where Ac is the absorbance of the control sample (DPPH) and As is the absorbance of the mixtures. All measurements were made in triplicate. I % = (Ac-As)/Ac × 100 (2)

[9] = system: breast cancer (MCF7) cells; experiment: Cytotoxicity MTS assay on MCF-7; type: cell-based, human; details: for IC50: Homo sapiens, MCF7, MCF-7, 48 h, MTS, tested 0.01-0.3 mM, read-out: Half maximal inhibition concentration (IC50); for Selectivity index (SI): IC50 NHDF / IC50 MCF7
Description: (§1) Cell culture: NHDF, HeLa, HOS, HepG2, MCF7, MeWo and CT-26 cells were cultivated in complete Eagle’s Minimal Essential Medium alpha (aMEM) containing a 1% Penicillin–Streptomycin–Amphotericin B mixture and a 10% fetal bovine serum under 5% CO2 humidified atmosphere at 37 °C. LN-229 cells were cultivated in DMEM with a 1% Penicillin–Streptomycin–Amphotericin B mixture and a 5% fetal bovine serum. U-118 cells were cultivated in DMEM with a 1% Penicillin–Streptomycin–Amphotericin B mixture and a 10% fetal bovine serum. StemPro™ Accutase™ Cell Dissociation Reagent was used for passaging MeWo and U-118 cells, and TrypLE Express was used for all other cell lines.
(§2) The working solutions were prepared by diluting the stock solutions with complete medium so that the final concentration of DMSO in the cell culture was 1%. The working solutions were used for incubation. Control cells were treated only with complete cell culture medium containing 1% DMSO.
(§3) Cytotoxicity MTS assay: In order to perform the MTS assay, cells were placed in culture-treated 96-well plates at densities of 5 × 10^3 cells/well (NHDF and CT-26), 7 × 10^3 cells/well (MCF7) and 10 × 10^3 cells/well (HOS, HeLa, HepG2, MeWo, LN-229, U-118) in 100 μL of a MEM medium/well and allowed to adhere for 24 h. After 24 h, the culture medium was replaced with the tested compound solutions at various concentrations, and the plates were incubated for another 48 h. Before the final reading, 20 μL CellTiter 96® Aqueous One Solution/well was added, and the plates were incubated for 1–4 h. Finally, the absorbance was recorded with a microplate reader at λ = 490 nm. The relative cell viability was expressed as a percentage of the viability of control, and the half maximal inhibitory concentration (IC50) was determined from the graphical representation of the cell viability vs. concentration. Graphical data were expressed as means ± standard error of the mean (S.E.M.). Statistical analysis was made with two-way ANOVA using Tukey’s multiple comparisons test. The difference was considered significant when p < 0.05. Data analysis was performed with GraphPad Prism software version 7.00 for Windows.

[10] = Complex formation with Mg2+ (estimate of farnesyltransferase inhibition), FTIR/UV-vis; details: 2/1 compound/MgCl2, 2 days at 37 °C, FTIR and UV-vis; taken as estimate of farnesyltransferase inhibition
Description: To estimate the ability of the studied compounds to inhibit the FT, their ability to bind the Zn^2+ or Mg^2+ ions was investigated by incubation in similar conditions as in vitro antitumor tests. The experiments indicated the ability of TEGylated derivatives to bind Mg^2+ ions, as follows.
After that, all the solutions were lyophilized, and the solid samples obtained were subjected to the FTIR spectroscopy measurements. Then, the mixtures that indicated complex formation were dissolved in DMSO, and their UV-vis spectra were recorded.

[11] = system: mouse colon carcinoma cell line (CT26); experiment: Cytotoxicity MTS assay on CT-26; type: cell-based; details: for Selectivity index (SI): IC50 NHDF / IC50 CT-26; for IC50: CT-26, 48 h
Description: as §1, §2, §3

[12] = system: glioblastoma (LN229) cells; experiment: Cytotoxicity MTS assay on LN229; type: cell-based, human; details: Homo sapiens, LN-229, LN229, 48 h, tested 0.01-0.3 mM, read-out: Half maximal inhibition concentration (IC50)
Description: as §1, §2, §3

[13] = system: normal human dermal fibroblasts (NHDF); experiment: Cytotoxicity MTS assay on normal fibroblasts; type: cell-based; details: Homo sapiens, 48 h, tested 0.01-0.3 mM, read-out: Half maximal inhibition concentration (IC50)
Description: as §1, §2, §3

[14] = Glutamine imination/transimination (amino acid binding) followed by NMR; details: 1/1 molar ratio with glutamine, MEM medium, 37 °C, 48 h
Description: The ability of the studied compounds to bind amino acids by imitation or transamination processes was investigated for glutamine amino acid. To do this, all compounds were incubated in the presence of glutamine for 48 h in a MEM solution to simulate in vitro tests on cancer cell lines. After incubation, the water was removed by lyophilization, and the crude solid was analyzed by NMR. […] Additional information about imine formation was obtained from the H,C-HSQC spectrum (Figure S2). In this type of heteronuclear bidimensional spectrum, a proton–carbon direct bond correlation signal was obtained between the proton resonating at 8.15 ppm and the carbon resonating at 160.5 ppm.
The mixtures were incubated at 37 °C for 48 h in order to simulate the in vitro conditions of antitumor determinations. After the incubation, all the samples were lyophilized, dissolved in DMSO-d6 and subjected to NMR spectroscopy analysis. The samples that indicated the imine formation were further investigated by recording the ^1H, ^15N HMBC and ^1H, ^13C HSQC NMR spectra. The ^1H-NMR and ^1H, ^15N HMBC NMR spectra of the glutamine dissolved in a mixture of 9/1 H2O/D2O were also provided as reference in order to determine which nitrogen was involved in the imine linkage. After the NMR studies, the same samples were diluted with DMSO to obtain a solution of 0.33 mM in order to provide their UV-vis spectra.

[15] = Solubility test in water with 1% DMSO; type: physicochemical; details: water with 1% of DMSO, read-out: concentration up to which the compound is soluble
Description: Solubility tests were performed to establish the maximum concentration of the compounds that might be used for in vitro tests by dissolving 0.003 mmol of compound in 1mL of water (H2O) with 1% of DMSO. The amount of solvent was increased until the compound was completely dissolved. The volume of solvent corresponding to the solving point was used to calculate the concentration. The TEGylated compounds were soluble under 0.3 mM (PTF) and 0.2 mM (PTMA, PTEA), and PEGylated compounds were soluble at to a concentration of 2 mM.

[16] = system: liver cancer (HepG2) cells; experiment: Cytotoxicity MTS assay on HepG2; type: cell-based, human; details: for IC50: HepG2, 48 h; for Selectivity index (SI): IC50 NHDF / IC50 HepG2
Description: as §1, §2, §3

[17] = system: malignant melanoma (MeWo) cells; experiment: Cytotoxicity MTS assay on MeWo; type: cell-based, human; details: Homo sapiens; MeWo, 48 h, MTS; tested 0.01-0.3 mM; read-out: Half maximal inhibition concentration (IC50)
Description: as §1, §2, §3

[18] = system: cervical carcinoma (HeLa) cells; experiment: Cytotoxicity MTS assay on HeLa; type: cell-based, human; details: for Selectivity index (SI): IC50 NHDF / IC50 HeLa
Description: as §1, §2, §3

[19] = system: osteosarcoma (HOS) cells; experiment: Cytotoxicity MTS assay on HOS; type: cell-based, human; details: Homo sapiens, 48 h, tested 0.01-0.3 mM, read-out: Half maximal inhibition concentration (IC50)
Description: as §1, §2, §3

[20] = system: glioblastoma cell line (U-118); experiment: Cytotoxicity MTS assay on U-118; type: cell-based, human; details: Homo sapiens; U-118, 48 h, MTS; tested 0.01-0.3 mM; read-out: Half maximal inhibition concentration (IC50)
Description: as §1, §2, §3

[21] = Cytotoxicity MTS assay on normal fibroblasts; type: cell-based, human; details: human, normal human dermal fibroblasts (NHDF), read-out: cell viability
Description: as §1, §2, §3

[22] = system: U87-MG; details: cell line not clear from layout (U87-MG assumed); cited from earlier work
[23] = Mus musculus, CT26, MTS, tested 0.01-0.3 mM, read-out: Half maximal inhibition concentration (IC50)
[24] = Homo sapiens, MTS, tested 0.01-0.3 mM, read-out: Half maximal inhibition concentration (IC50)
[25] = Homo sapiens, HeLa, 48 h, MTS, tested 0.01-0.3 mM, read-out: Half maximal inhibition concentration (IC50)

Structure (SMILES)	radical scavenging capacity (in words) [8]	IC50 [9] [µM]	ability to bind Mg^2+ ions (in words) [10]	Selectivity index (SI) [11]	IC50 [12] [µM]	IC50 [13] [µM]	solubility [15] [µM]	IC50 [16, 24] [µM]	Selectivity index (SI) [16]	IC50 [17] [µM]	Selectivity index (SI) [18]	IC50 [19] [µM]	IC50 [20] [µM]	further results
O=c1[nH]cc(F)c(=O)[nH]1 [5-Florouracil]														IC50 ([1]; reference cell empty, probably merged): 677 µM; IC50 [2]: 61.5 µM; IC50 [3]: 25 µM; IC50 [4]: 300 µM; IC50 [5]: 253 µM
CN(C)CCCN1c2ccccc2Sc2ccc(Cl)cc21 [Chlorpromazine]														IC50 [6]: 10 µM
COc1cccc2c1C(=O)c1c(O)c3c(c(O)c1C2=O)C[C@@](O)(C(=O)CO)C[C@@H]3O[C@H]1C[C@H](N)[C@H](O)[C@H](C)O1 [Doxorubicin]														IC50 [1]: 0.18 µM; IC50 [2]: 88 µM; IC50 [3]: 0.137 µM; IC50 [4]: 10 µM; IC50 [5]: 1.03 µM; IC50 [7]: 0.07 µM
COCCOCCOCCN1c2ccccc2Sc2cc(/C=N/CCc3ccc(S(N)(=O)=O)cc3)ccc21 [PTEA]	very low radical scavenging capacity	138	formation of dative bonds	1.25	183	107	< 200	85	1.25	239	6.66	> 300	170	IC50 [11, 23]: 80 µM; ability to bind glutamine by imination/transimination (in words) [14]: direct transimination; IC50 [18, 25]: 15 µM
COCCOCCOCCN1c2ccccc2Sc2cc(C=O)ccc21 [PTF, 10-(triethylene glycol)-10H-phenothiazine-3-carbaldehyde]	very low radical scavenging capacity	108	dative bond with magnesium	2.38	186	150	< 300	50	3	147	10	> 300	190	Selectivity index (SI) [9]: 1.5; viability at 100 µM ([11]; Mus musculus, CT26, CT-26, 0.1 mM, 48 h, MTS): 30%; IC50 ([11]; Mus musculus, CT26, MTS, read-out: IC50): 63 µM; viability at 48 h, 0.05 mM ([21]; 0.05 mM): 86%; viability at 48 h, 0.2 mM ([21]; 0.2 mM): 33%; viability at 100 µM ([16]; Homo sapiens, HepG2, 0.1 mM, 48 h, MTS, read-out: cell viability): 27%; IC50 ([16]; Homo sapiens, MTS, read-out: IC50): 52 µM; viability at 50 µM ([18]; Homo sapiens, HeLa, 0.05 mM, 48 h, MTS, read-out: cell viability): 11%; IC50 ([18]; Homo sapiens, HeLa, 48 h, MTS, read-out: IC50): 15 µM
COCCOCCOCCN1c2ccccc2Sc2cc(/C=N/Cc3ccc(S(N)(=O)=O)cc3)ccc21 [PTMA, 4-((((10-(triethylene glycol)-10H-phenothiazin-3-yl)methylene)amino)methyl)benzenesulfonamide]	very low radical scavenging capacity	141	formation of dative bonds	2	219	200	< 200	83	2.5	287	6.89	> 300	> 300	Selectivity index (SI) [9]: 1.42; IC50 [11, 23]: 107 µM; ability to bind glutamine by imination/transimination (in words) [14]: glutamine binding process took places in two steps; IC50 [18, 25]: 29 µM
OCCN1CCN(CCCN2c3ccccc3Sc3ccc(Cl)cc32)CC1 [Perphenazine]														IC50 [22]: 6.8 µM
